For orientation: inhibition means the drop in the measured response relative to a control, in per cent.

Assay [1] has as its target Serine/threonine-protein kinase Sgk2 (Homo sapiens) (UniProt Q9HBY8). Description: Inhibition of SGK2 (unknown origin) at 0.164 uM relative to control.
Assay [2] deals with Casein kinase I isoform gamma-3 (Homo sapiens) (UniProt Q9Y6M4). Description: Inhibition of CK1-gamma3 (unknown origin) at 0.164 uM relative to control.
Assay [3] has as its target Cyclin-dependent kinase 1/cyclin B1 (Homo sapiens) (UniProt P06493+P14635). The experiment in a line: Inhibition of CDK1/Cyclin B1 (unknown origin) at 0.164 uM relative to control. Type of assay: protein-complex assay.
Assay [4] has as its target Tyrosine-protein kinase Srms (Homo sapiens) (UniProt Q9H3Y6). Description: Inhibition of SRM (SRMS) (unknown origin) at 0.164 uM relative to control.
In assay [5] the target is Fibroblast growth factor receptor 2 (Homo sapiens) (UniProt P21802). Description: Inhibition of FGFR2 (unknown origin) at 0.164 uM relative to control.
In assay [6] the target is Ephrin type-B receptor 3 (Homo sapiens) (UniProt P54753). The experiment in a line: Inhibition of EPHB3 (unknown origin) at 0.164 uM relative to control.
The target of assay [7] is Leukocyte tyrosine kinase receptor (Homo sapiens) (UniProt P29376). Description: Inhibition of LTK (unknown origin) at 0.164 uM relative to control.
Assay [8] deals with Inhibitor of nuclear factor kappa-B kinase subunit beta (Homo sapiens) (UniProt O14920). Description: Inhibition of IKK-beta (unknown origin) at 0.164 uM relative to control.
For assay [9], the target named is Ribosomal protein S6 kinase alpha-6 (Homo sapiens) (UniProt Q9UK32). The experiment in a line: Inhibition of RSK4 (unknown origin) at 0.164 uM relative to control.
Assay [10] addresses Cyclin-dependent kinase 9 (Homo sapiens) (UniProt P50750). The experiment in a line: Inhibition of CDK9 (unknown origin) at 0.164 uM relative to control.
Assay [11] deals with Proto-oncogene tyrosine-protein kinase receptor Ret (Homo sapiens), P07949 [M918T]. The experiment in a line: Inhibition of RET M918T mutant (unknown origin) at 0.164 uM relative to control.
Assay [12] addresses T1, cGMP-dependent protein kinase 1 (Homo sapiens) (UniProt Q13976).
T1 sequence (whole entry): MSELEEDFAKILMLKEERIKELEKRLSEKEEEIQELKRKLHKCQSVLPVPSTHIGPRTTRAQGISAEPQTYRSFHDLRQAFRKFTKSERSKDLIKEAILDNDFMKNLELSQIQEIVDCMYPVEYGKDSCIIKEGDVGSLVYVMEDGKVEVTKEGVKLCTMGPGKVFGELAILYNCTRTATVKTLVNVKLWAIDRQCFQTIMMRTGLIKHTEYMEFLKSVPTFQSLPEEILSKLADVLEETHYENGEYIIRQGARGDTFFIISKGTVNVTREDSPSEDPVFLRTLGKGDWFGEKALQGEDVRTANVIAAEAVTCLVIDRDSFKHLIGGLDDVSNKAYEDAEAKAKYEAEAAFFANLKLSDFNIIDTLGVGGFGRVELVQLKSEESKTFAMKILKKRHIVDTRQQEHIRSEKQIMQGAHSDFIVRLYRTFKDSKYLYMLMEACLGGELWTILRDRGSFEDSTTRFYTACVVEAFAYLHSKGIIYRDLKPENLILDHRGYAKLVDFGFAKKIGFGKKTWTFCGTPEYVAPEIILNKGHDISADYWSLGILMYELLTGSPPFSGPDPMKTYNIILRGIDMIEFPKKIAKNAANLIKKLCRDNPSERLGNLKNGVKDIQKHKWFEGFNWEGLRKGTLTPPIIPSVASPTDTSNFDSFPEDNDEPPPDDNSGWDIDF
Description: Inhibition of PKG-alpha (unknown origin) at 0.45 uM relative to control.

Assay [13] concerns the target Glycogen synthase kinase-3 alpha (Homo sapiens) (UniProt P49840). The experiment in a line: Inhibition of GSK3-alpha (unknown origin) at 0.45 uM relative to control.
Assay [14] deals with T2, MAP kinase-activated protein kinase 5 (Homo sapiens) (UniProt Q8IW41).
T2 sequence (whole entry): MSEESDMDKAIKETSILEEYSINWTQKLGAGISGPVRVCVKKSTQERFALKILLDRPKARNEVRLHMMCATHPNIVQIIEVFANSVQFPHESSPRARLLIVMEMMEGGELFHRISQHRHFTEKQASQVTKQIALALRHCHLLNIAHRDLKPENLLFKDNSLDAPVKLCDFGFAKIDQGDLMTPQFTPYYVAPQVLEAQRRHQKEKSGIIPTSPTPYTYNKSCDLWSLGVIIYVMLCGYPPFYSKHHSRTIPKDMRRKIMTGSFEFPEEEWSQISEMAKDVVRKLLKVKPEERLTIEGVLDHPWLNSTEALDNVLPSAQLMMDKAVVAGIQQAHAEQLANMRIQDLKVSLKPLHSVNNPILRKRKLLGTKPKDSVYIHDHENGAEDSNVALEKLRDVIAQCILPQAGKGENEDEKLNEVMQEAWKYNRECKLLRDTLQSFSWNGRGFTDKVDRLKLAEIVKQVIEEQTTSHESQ
The experiment in a line: Inhibition of PRAK (unknown origin) at 0.19 uM relative to control.

Assay [15] addresses Protein kinase C delta type (Homo sapiens) (UniProt Q05655). The experiment in a line: Inhibition of PKC-delta (unknown origin) at 0.19 uM relative to control.
Assay [16] has as its target Proto-oncogene tyrosine-protein kinase receptor Ret (Homo sapiens) (UniProt P07949). The experiment in a line: Inhibition of RET (unknown origin) at 0.19 uM relative to control.
Assay [17] deals with Vascular endothelial growth factor receptor 2 (Homo sapiens) (UniProt P35968). The experiment in a line: Inhibition of KDR (unknown origin) at 0.19 uM relative to control.
Assay [18] concerns the target Ephrin type-A receptor 4 (Homo sapiens) (UniProt P54764). Description: Inhibition of EPHA4 (unknown origin) at 0.19 uM relative to control.
For assay [19], the target named is AMPK alpha2/beta1/gamma1 (Homo sapiens) (UniProt P54646+P54619+Q9Y478). The experiment in a line: Inhibition of AMPK-alpha2/beta1/gamma1 (unknown origin) at 0.19 uM relative to control. Type of assay: protein-complex assay.
Assay [20] addresses Serine/threonine-protein kinase 10 (Homo sapiens) (UniProt O94804). The experiment in a line: Inhibition of LOK (unknown origin) at 0.19 uM relative to control.
For assay [21], the target named is Cyclin-dependent kinase 3 (Homo sapiens) (UniProt Q00526). The experiment in a line: Inhibition of CDK3 (unknown origin) at 0.19 uM relative to control.
The subject of assay [22] is Tyrosine-protein kinase ABL1 (Homo sapiens), P00519 [Q252H]. Description: Inhibition of Abl Q252H mutant (unknown origin) at 0.19 uM relative to control.
Assay [23] concerns the target MAP kinase-activated protein kinase 3 (Homo sapiens) (UniProt Q16644). The experiment in a line: Inhibition of MAPKAPK3 (unknown origin) at 0.19 uM relative to control.
In assay [24] the target is Macrophage-stimulating protein receptor (Homo sapiens) (UniProt Q04912). Description: Inhibition of MST1R (unknown origin) at 0.19 uM relative to control.
Assay [25] has as its target Cyclin-dependent kinase 9 (Homo sapiens) (UniProt P50750). The experiment in a line: Inhibition of CDK9 (unknown origin) at 0.19 uM relative to control.

Cyclin-dependent kinase 9 (Homo sapiens), sequence (P50750 whole entry): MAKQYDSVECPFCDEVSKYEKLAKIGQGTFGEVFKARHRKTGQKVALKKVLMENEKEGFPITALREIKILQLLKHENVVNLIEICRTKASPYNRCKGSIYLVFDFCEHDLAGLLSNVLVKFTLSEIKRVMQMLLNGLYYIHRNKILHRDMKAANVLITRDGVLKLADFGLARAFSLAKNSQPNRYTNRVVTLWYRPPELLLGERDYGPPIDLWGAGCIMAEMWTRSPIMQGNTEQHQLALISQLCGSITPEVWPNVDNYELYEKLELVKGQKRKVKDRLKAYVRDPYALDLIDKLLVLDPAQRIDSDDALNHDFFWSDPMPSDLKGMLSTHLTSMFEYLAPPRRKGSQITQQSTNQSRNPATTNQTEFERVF
AMPK alpha2/beta1/gamma1 (Homo sapiens), sequence (P54619 whole entry partner): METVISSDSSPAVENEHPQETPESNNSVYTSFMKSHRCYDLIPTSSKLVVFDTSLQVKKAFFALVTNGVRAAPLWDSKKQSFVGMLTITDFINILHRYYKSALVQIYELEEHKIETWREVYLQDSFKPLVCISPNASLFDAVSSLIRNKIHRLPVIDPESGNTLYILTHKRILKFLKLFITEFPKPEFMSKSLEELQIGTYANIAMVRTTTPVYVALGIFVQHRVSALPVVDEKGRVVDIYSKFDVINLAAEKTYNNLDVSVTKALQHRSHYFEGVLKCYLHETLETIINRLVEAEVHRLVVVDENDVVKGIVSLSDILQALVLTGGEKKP
AMPK alpha2/beta1/gamma1 (Homo sapiens), sequence (P54646 whole entry): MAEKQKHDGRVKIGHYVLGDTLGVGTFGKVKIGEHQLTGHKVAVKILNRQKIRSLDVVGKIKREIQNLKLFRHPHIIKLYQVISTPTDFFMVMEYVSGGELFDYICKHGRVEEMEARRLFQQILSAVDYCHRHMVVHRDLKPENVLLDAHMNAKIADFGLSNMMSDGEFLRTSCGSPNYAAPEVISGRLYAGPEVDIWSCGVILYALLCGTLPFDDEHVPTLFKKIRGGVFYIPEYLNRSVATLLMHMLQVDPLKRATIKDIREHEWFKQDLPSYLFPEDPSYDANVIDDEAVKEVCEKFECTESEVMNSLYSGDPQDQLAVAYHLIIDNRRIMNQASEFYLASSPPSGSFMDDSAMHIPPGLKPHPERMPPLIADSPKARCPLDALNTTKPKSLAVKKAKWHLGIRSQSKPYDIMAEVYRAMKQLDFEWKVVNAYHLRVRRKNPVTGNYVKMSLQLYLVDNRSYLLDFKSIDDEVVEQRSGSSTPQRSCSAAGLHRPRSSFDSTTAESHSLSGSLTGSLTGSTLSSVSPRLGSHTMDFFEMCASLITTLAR
AMPK alpha2/beta1/gamma1 (Homo sapiens), sequence (Q9Y478 2-270 partner limits assumed): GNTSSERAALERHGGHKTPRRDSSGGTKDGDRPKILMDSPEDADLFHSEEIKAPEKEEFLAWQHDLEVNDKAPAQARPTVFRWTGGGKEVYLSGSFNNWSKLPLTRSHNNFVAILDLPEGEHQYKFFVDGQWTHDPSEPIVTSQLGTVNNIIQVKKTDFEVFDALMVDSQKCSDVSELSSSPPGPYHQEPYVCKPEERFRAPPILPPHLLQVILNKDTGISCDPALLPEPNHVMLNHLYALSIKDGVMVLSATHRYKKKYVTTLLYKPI
MAP kinase-activated protein kinase 3 (Homo sapiens), sequence (Q16644 whole entry, looked up): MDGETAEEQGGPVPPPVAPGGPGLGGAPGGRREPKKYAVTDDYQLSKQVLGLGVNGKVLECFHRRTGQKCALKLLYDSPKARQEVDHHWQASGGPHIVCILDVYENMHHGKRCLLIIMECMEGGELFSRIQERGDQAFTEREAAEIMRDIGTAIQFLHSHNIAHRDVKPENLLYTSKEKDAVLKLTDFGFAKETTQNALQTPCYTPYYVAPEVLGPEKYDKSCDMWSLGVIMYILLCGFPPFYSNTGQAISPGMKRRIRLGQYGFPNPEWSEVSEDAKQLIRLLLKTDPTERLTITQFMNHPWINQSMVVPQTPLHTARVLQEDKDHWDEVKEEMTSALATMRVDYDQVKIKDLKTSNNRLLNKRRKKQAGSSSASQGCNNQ
Vascular endothelial growth factor receptor 2 (Homo sapiens), sequence (P35968 whole entry): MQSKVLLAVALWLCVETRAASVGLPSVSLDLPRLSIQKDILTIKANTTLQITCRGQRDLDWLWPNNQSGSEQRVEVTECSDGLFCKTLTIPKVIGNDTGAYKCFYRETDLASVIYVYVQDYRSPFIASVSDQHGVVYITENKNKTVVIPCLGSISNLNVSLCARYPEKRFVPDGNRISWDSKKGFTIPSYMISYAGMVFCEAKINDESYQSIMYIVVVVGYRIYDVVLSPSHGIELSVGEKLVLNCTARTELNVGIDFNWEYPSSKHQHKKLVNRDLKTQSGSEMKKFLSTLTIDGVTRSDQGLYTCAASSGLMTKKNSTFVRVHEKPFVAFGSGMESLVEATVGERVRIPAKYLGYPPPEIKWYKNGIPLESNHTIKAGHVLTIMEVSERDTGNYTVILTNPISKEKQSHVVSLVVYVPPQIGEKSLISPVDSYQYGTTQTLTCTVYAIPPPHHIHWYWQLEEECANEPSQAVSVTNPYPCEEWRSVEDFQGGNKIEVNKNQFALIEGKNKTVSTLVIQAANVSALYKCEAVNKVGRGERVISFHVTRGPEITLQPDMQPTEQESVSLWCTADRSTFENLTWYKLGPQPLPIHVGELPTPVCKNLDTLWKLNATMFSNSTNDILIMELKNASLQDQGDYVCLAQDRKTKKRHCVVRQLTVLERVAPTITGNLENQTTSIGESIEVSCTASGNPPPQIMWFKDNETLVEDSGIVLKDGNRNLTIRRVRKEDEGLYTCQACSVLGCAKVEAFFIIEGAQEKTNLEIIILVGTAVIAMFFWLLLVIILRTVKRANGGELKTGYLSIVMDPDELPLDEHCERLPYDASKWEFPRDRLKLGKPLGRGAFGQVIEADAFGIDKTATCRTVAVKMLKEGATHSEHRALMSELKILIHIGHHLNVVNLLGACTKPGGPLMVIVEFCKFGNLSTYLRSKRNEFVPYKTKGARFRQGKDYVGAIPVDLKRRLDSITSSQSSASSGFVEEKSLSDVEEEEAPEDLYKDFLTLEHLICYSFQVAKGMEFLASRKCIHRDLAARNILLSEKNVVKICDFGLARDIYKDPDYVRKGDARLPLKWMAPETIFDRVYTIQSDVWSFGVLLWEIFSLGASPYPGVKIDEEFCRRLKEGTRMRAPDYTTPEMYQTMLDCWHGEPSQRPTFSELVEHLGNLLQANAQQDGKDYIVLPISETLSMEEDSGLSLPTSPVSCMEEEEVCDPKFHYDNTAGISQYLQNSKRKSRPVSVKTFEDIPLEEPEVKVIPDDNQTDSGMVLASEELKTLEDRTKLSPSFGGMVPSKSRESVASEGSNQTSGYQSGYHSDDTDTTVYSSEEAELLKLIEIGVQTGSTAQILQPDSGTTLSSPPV
Tyrosine-protein kinase Srms (Homo sapiens), sequence (Q9H3Y6 whole entry): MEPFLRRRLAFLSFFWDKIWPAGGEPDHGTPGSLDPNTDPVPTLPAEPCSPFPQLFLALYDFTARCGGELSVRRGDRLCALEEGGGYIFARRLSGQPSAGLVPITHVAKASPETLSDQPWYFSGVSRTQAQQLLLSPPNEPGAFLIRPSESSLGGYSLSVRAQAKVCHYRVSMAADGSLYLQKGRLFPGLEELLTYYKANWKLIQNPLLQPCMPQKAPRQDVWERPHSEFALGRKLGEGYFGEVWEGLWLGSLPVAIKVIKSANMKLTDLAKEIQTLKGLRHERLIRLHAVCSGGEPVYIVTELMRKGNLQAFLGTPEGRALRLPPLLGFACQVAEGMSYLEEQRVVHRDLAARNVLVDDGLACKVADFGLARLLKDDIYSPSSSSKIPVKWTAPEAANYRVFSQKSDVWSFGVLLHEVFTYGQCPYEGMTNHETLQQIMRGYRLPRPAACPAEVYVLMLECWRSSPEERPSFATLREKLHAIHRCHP
Ephrin type-B receptor 3 (Homo sapiens), sequence (P54753 whole entry): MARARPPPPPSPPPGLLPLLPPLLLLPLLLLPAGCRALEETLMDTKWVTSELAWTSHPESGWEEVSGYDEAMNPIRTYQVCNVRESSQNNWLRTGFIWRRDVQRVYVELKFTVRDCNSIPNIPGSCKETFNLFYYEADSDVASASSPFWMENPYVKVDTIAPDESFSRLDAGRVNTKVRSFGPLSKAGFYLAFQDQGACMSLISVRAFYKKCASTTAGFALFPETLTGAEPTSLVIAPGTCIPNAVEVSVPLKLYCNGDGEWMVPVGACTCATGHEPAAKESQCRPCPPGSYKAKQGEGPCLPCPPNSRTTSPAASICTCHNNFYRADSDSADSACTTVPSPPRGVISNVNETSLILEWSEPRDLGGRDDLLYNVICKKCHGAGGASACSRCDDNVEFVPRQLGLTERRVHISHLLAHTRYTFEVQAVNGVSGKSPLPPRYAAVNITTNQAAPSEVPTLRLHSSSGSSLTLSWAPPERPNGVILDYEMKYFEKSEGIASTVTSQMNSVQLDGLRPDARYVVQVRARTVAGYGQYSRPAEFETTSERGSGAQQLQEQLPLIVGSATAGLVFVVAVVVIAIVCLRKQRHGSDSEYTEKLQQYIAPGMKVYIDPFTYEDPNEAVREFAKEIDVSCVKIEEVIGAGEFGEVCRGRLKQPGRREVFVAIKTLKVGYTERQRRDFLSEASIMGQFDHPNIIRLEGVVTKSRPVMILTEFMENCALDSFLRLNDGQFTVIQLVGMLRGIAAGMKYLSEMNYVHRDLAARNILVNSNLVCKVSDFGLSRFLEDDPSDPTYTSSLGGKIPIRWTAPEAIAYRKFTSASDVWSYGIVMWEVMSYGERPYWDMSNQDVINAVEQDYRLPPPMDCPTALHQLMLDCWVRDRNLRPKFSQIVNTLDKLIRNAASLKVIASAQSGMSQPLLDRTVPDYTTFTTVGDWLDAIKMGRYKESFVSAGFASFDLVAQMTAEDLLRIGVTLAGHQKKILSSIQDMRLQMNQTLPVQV

With `COC(=O)Nc1cc(-c2c(C3CC3)n[nH]c2C)cc2[nH]ncc12`, the inhibition in assay [1] is -0.7%; in [2], 5.3%; in [3] it was -0.3%; in assay [4] it was 3.3%; in assay [5] it was -5.3%; in assay [6], 0.7%. Also, the inhibition in assay [7] is -2.7%; in assay [8], -3.7%; in assay [9], 13.3%; in assay [10], 0%; in assay [11], 6.7%.

Take `Cc1n[nH]c(C)c1-c1ccc2c(NC(=O)c3ccc(N4CCN(C)CC4)cc3)n[nH]c2c1`: the inhibition was -1.7% in [12] and -1% in [13].

As to `Cc1[nH]nc(C2CC2)c1-c1ccc2c(-c3ccc(N4CCN(C)CC4)nc3)n[nH]c2c1`, the inhibition in [14] was found to be 1.3%; in [15], 0%; in [16] it was 47.3%; in assay [17], 51%; in [18], 2%; in assay [19], 13.7%. The inhibition was 4.3% in [20]; 1.7% in [21]; 71% in [22]; -1.7% in [23]; -4.3% in assay [24]; -1% in [25].
